Where no end group is shown, it is not given here.
What was measured:
Assay type in all cases: in vivo
Salmonella-infected mice = assay: Salmonella-mediated cecal fibrosis in mice; conditions: Salmonella-infected mice with lentiviral elafin overexpression
Description: Eight-week-old male and female 129Sv/J mice (#000691, Jackson Laboratories) were administered 20 mg streptomycin via oral gavage. Twenty-four hours later, the mice were orally infected with Salmonella typhimurium SL1344 strain 1×10^8 colony-forming units by oral gavage to induce cecal fibrosis.
Origene or miR205-5p-OFF lentivrus (mm35328) or miR205-5p-OE lentivirus (mm15214) from Applied Biological Materials on day 14. Some infected mice received oral antibiotics mixture in drinking water ad libitum from day 14 to day 21 to suppress intestinal microbiota. […]
H&E and Masson Trichrome (MT) staining were performed as described previously. Microphotographs were recorded at multiple locations and scored by two investigators blindly. Intestinal injuries were scored (0-12). The severity of intestinal fibrosis was assessed by MT staining and scored (0-3). […]
Total RNA was isolated by an RNeasy kit (#74104, Qiagen) and reverse transcribed into cDNA by a high-capacity cDNA reverse transcription kit (#4368813, ThermoFisher). […] Relative mRNA/miRNA quantification was performed by comparing test groups and control groups after normalization with endogenous control genes. The fold changes are expressed as 2^ΔΔCt. […]
(§1) Overall disease activity (ODA) was calculated by % change of histology and fibrosis scores and colonic mRNA expression of fibrosis- and inflammation-related genes. […]

HFD-treated male mice [1] = assay: Leptin sensitivity test in HFD-treated male mice
Description: FIG. 35. Elafin-dependent serum exosome-mediated inhibition of hyperphagia and hyperglycemia was reversed by miR181b-5p and miR219-5p inhibitors. (A) Serum exosome transplantation to HFD-treated mice. The miRNA inhibitors were injected on the same day as exosome injection. (B) Change in fat mass. (C) No significant change in body weight among all groups over 7 days after miRNA inhibitor and exosome injection. (D) Fasting blood glucose levels 7 days after exosome and miRNA inhibitor injection. (E) Daily food consumption per mouse. (F) Serum leptin levels measured on day seven post-injection. (G, H) Leptin, Cd36, and adiponectin mRNA expression in the mesenteric fat and epididymal fat of HFD-treated mice with exosome and miRNA inhibitor injection. (I) Leptin sensitivity test: The RD/HFD-treated mice were injected with leptin for 3 days after elafin-LV injection. (J, K) Daily food consumption and fasting blood glucose levels at 24 h after the last leptin injection. Each group consists of 8 mice.
Leptin sensitivity tests were performed by injecting 1 μg/kg leptin intraperitoneally (#450-31, Peprotech) daily for 3 days. At the endpoint of the experiments, mice were fasted for 6 h and tested for fasting blood glucose and cholesterol levels with a drop of tail vein blood using Freestyle Lite blood glucose meter and test strips (Abbott Diabetes Care) and Accutrend Plus meter and test strips (Roche), respectively. The oral glucose tolerance test (OGTT) was performed by feeding D-glucose (1 g/kg) to fasted mice via oral gavage, and the blood glucose level was measured 2 h after oral glucose feeding. Blood glucose and cholesterol levels are presented as mg/dL. Measurements of fasting blood glucose levels, blood total cholesterol levels, food consumption, and fat/lean mass (EchoMRl) were performed as described in our previous report.
For inhibition of miRNAs, control (Y100199006), miR-181b-5p (YC10201288-FZA), and miR-219-5p (YC10201241-FZA) inhibitors (Qiagen) were dissolved in PBS. […]

[2] = tested on: HFD-treated elafin-overexpressing mice; assay: Intraperitoneal IL-1β and IFNγ injection to HFD-treated elafin-overexpressing mice; conditions: for effect on elafin-mediated inhibition of fat mass and fasting blood glucose levels / effect on elafin-mediated inhibition of liver steatosis: mouse, in vivo
Description: FIG. 33. Circulating immune cells mediated the anti-obesity effects of elafin in HFD-treated male mice. (A) Circulating immune cell mRNA expression in the HFD-treated mice with and without lentiviral elafin overexpression. (B) Splenocyte transplantation to HFD-treated Rag−/− mice. (C) Physiological parameters of HFD-treated Rag−/− recipient mice after splenocyte transplantation. Transplantation of splenocytes from elafin-overexpressing donors caused reduced fat mass, body weight, and food consumption and increased leptin levels in the Rag−/− recipient mice. (D) Mesenteric fat and epididymal fat tissue mRNA expression in HFD- treated mice with and without lentiviral elafin overexpression. (E) Determination of the physiological effects of intraperitoneal IL-1β and IFNγ injection to HFD-treated elafin-expressing mice. IL-1β or IFNγ was injected on the same day as elafin-expressing lentivirus injection. (F) Daily food consumption, (G) serum leptin levels. (H) Change in body weight. (I) Change in fat mass. (J) Fasting blood glucose levels. Each group consists of 8 mice.
Some groups were injected with IL-1β protein 2.5 μg per mouse (#211-11B Peprotech) or IFNγ protein 5 μg per mouse (#315-05 Peprotech) intraperitoneally to increase circulating IL-1β or IFNγ levels.

HFD-treated male mice [3] = assay: Oral and subcutaneous administration of modified elafin to HFD-treated male mice; conditions: 14 days
Description: FIG. 36. Subcutaneous and oral administration of modified elafin inhibited hyperphagia and hyperglycemia in HFD-treated male mice. (A) Elafin (1 mg/kg) was injected into RD-treated male mice subcutaneously. Tail-vein blood samples were collected for elafin ELISA. This mouse experiment was intended for the determination of basic pharmacokinetics of elafin, but not the determination of physiology of elafin. (B) HFD-treated mice were treated with either oral gavage of Elafin-Eudragit formulation (10 mg/kg) daily or subcutaneous injection of PEG-elafin (3.25 mg/kg) every 48 h for 14 days. Serum elafin levels. (C) Serum leptin levels. (D) Serum IFNγ and IL-1β levels. (E) Daily food consumption. (F) Change in fat mass. (G) Change in body weight over 14 days. (H) Fasting blood glucose levels. Each group consists of 8 mice.
Oral and subcutaneous administration of modified elafin to mice. Eight-week-old male c57BL/6J (JAX #000664) mice were fed with HFD for 8 weeks to induce obesity and hyperglycemia, followed by administration of Elafin-Eudragit formulation (10 mg/kg) via oral gavage daily or subcutaneous injection of polyethylene glycol conjugated (PEGylated) elafin (3.25 mg/kg) every 48 h to mice for 14 days. Oral Elafin-Eudragit formulation was made by Dr. Xingguo Cheng at the Southwest Research Institute (SWRI), Texas. Elafin was coated with Eudragit FS3OD polymer. […] Elafin-Eudragit was packaged into microparticles using an SWRI-patented spinning disk atomization technology. This packaging prevented leakage of elafin in acidic, aqueous solution. The oral elafin-Eudragit formulation was dissolved in mildly acidified (pH 5) water containing 0.5% hydroxypropyl methylcellulose (HPMC). PEGylated elafin was made by conjugation to methoxyl-PEG12 (New England Peptide Company). Control groups received either oral Eudragit-HPMC solution or subcutaneous PEG injection.

TNBS-treated mice = assay: TNBS-associated colonic fibrosis in mice; conditions: TNBS-treated mice
Description: Eight-week-old male and female CD-1 mice (#022, Charles River Laboratories) were injected with 50pL TNBS solution (to induce colonic fibrosis) or 30% ethanol (vehicle) via enema weekly for five weeks. After the last TNBS injection, the mice were held for two additional weeks to develop colonic fibrosis. Some of the mice were injected with 5 μg/mouse of either control (PS100001) or elafin-expressing construct (RC203136) from
Origene via InvivoJetPEI transfection reagent (201-10G, Polyplus) intracolonically on the 9th day after the last TNBS injection or five days before the end of experiment.
Some of the mice received either a single intraperitoneal injection of 10 mg/kg anti-tumor necrosis factor-alpha (anti-TNFα) neutralizing antibody (6E0058, BioXCell) or oral antibiotic mixture in drinking water ad libitum from the 9th day after the last TNBS injection to the endpoint of the experiment. The antibiotics mixture contains kanamycin (0.4 mg/mL), gentamicin (0.035 mg/mL), colistin (850 U/mL), metronidazole (0.215 mg/mL), and vancomycin (0.045 mg/mL), which was routinely used by our laboratory for suppressing intestinal microbiota.
For PAR1/2 activation, some of the mice were injected with DMSO (50pL/mouse), 5 mg/kg PAR1 agonist TRAP-6, or 5 mg/kg PAR2 agonist SLIGKV-NH2 via enema on the 9th, 11th, and 13th days after the last TNBS injection.
For miRNA inhibition, some of the mice were injected with 5 mg/kg either control inhibitor or miR205-5p power inhibitor (Qiagen) […] via enema on the 9th, 11th, and 13th days after the last TNBS injection.
For Zeb1 manipulation, some mice received a single intraperitoneal injection (10^7 infectious units/mouse) of control lentivirus (PS100064V), Zeb1-overexpressing lentivirus (MR223095L2V), or Zeb1-shRNA lentivirus (TL513177V) from Origene, Inc. nine days after the last TNBS injection.
Dr. Xingguo Cheng produced the oral elafin-Eudragit-FS3OD formulation via a material transfer agreement (UCLA MTA2019-00000337) with the Southwest Research Institute (SWRI) in Texas. […] The mice were fed with either control-Eudragit or elafin-Eudragit in mildly acidified (pH 5) water containing 0.5% hydroxypropyl methylcellulose (HPMC) daily via oral gavage during the last five days of the experiment.
H&E and Masson Trichrome (MT) staining were performed as described previously. Microphotographs were recorded at multiple locations and scored by two investigators blindly. Intestinal injuries were scored (0-12). The severity of intestinal fibrosis was assessed by MT staining and scored (0-3). ZEB1 immunohistochemistry was performed using an anti-ZEB1 antibody (HPA027524, Sigma).
Total RNA was isolated by an RNeasy kit (#74104, Qiagen) and reverse transcribed into cDNA by a high-capacity cDNA reverse transcription kit (#4368813, ThermoFisher). PCR reactions were run with Taq Universal SYBR Green Supermix (1725120, Bio-Rad) and TaqMan real-time PCR assays (ThermoFisher) in a Bio-Rad CFX384 system. For the determination of miRNA expression, RNA was converted to cDNA using miRCURY LNA RT kit. PCR reactions were run with miRCURY LNA SYBR Green PCR kit and miRCURY LNA PCR assays (Qiagen). Relative mRNA/miRNA quantification was performed by comparing test groups and control groups after normalization with endogenous control genes. The fold changes are expressed as […]. […]
as §1

## CC[C@H](C)[C@H](NC(=O)[C@H](CC1CCCCC1)NC(=O)c1ccno1)C(=O)NCc1cccc(C(=O)N2CCC(CN)CC2)c1 [GB110, reference compound]
Salmonella-infected mice
  effect on elafin-mediated inhibition of cecal fibrosis / collagen deposition and fibrogenic mRNA expression: reversed

## IFNγ: IFNγ protein (Peprotech)
HFD-treated male mice [1]; mouse, in vivo
  effect on elafin-mediated decrease of food consumption and fasting blood glucose levels: reversed
[2]; IL-1β 2.5 μg or IFNγ 5 μg per mouse intraperitoneally
  food consumption in elafin-overexpressing mice: moderately increased
[2]
  effect on elafin-mediated inhibition of fat mass and fasting blood glucose levels: reversed
  effect on elafin-mediated inhibition of liver steatosis: reversed

## IL-1β: IL-1β protein (Peprotech)
[2]
  effect on elafin-mediated inhibition of fat mass and fasting blood glucose levels: reversed
  effect on elafin-mediated inhibition of liver steatosis: reversed

## Leptin: leptin (#450-31, Peprotech) injected intraperitoneally
HFD-treated male mice [1]; leptin 1 μg/kg intraperitoneally daily for 3 days
  food consumption in HFD-treated elafin-overexpressing mice: further reduced
HFD-treated male mice [1]; leptin daily for 3 days
  decrease of fasting blood glucose in HFD-treated elafin-overexpressing mice: not affected

## PEG-Elafin: elafin conjugated to methoxyl-PEG12, for subcutaneous injection (AQEPVKGPVSTKPGSCPIILIRCAMLNPPNRCLKDTDCPGIKKCCEGSCGMACFVPQ; ends and bridges not checked; also: conjugated to methoxyl-PEG12, site not given here; UniProt P19957 61-117, looked up)
HFD-treated male mice [3]
  circulating IFNγ levels: significantly reduced
  circulating leptin levels: significantly increased
  fasting blood glucose levels: significantly reduced
  fat mass gain: significantly reduced
  food consumption: significantly reduced
  liver steatosis: significantly reduced
HFD-treated male mice [3]; Elafin-Eudragit 10 mg/kg oral daily, PEG-elafin 3.25 mg/kg s.c. every 48 h
  serum elafin levels versus lentiviral elafin overexpression: comparable

## TRAP-6 [PAR1 agonist]
TNBS-treated mice
  colonic injury and fibrosis: did not affect

Reference: US20230405078A1, “DETECTION AND TREATMENT OF INTESTINAL FIBROSIS” (THE REGENTS OF THE UNIVERSITY OF CALIFORNIA, priority 2020, published 2023)
